Laboratory results: US11510931B2, “Compositions and methods for treating ophthalmic conditions” (MEDICON PHARMACEUTICALS, INC., priority 2016, dated 2022)

What was measured:
MMP-1 = MMP-1 levels in cultured human conjunctival cells (ELISA); assay type: cell-based; conditions: for reduction of MMP-1 secreted into the culture medium: compared to controls; for levels of MMP-1 secreted into the culture medium: mean±SEM
Protocol: In an in vitro assay with purified MMP-1 (collagenase I) as […] it was shown that PS inhibited collagenase activity with an IC50 of <100 nM. In cultured human conjunctiva cells, PS suppressed MMP-1 by 75%-86%. In the lacrimal glands of rabbits with DED treated with PS eye drops, PS suppressed MMP-9 levels by 27% compared to vehicle treated rabbits (2.20±0.24 vs. 1.66±0.20 ng/mg protein; p<0.05; mean±SEM).
(§1) The Mechanism of Action of PS in Dry Eye. Tissue culture, animal and human studies have established inflammation as the core mechanism of DED^8. To determine the mechanism of action of PS in DED the response to PS of several factors known to play an important role in the inflammation associated with DED was explored. They include NF-κB; the cytokines TGF-β, IL-1 β, IL-6 and IL-8; the collagenases MMP-1 and MMP-9; and PGE2. In these studies we used human conjunctival epithelial cells, the Wong-Kilbourne derivative of Chang conjunctival cells (clone 1 to 5c-41 American Type Culture Collection (Manassas, Va.) certified cell line, 20.2).

PGE2 = PGE2 levels in tears and cornea of rabbits by ELISA; assay type: in vivo, rabbit
Protocol: The effects of PS, ketorolac and dicofenac (the latter two ophthalmic NSAIDs known to induce corneal melt) on the tear levels of PGE2 in rabbits with concanavalin A-induced dry eye were compared. Three eye drops of PS 1.5% or of commercially available ketorolac 0.5% were given at 0 time, and 1 h later to rabbits with concanavalin A-induced DED. Tears were obtained at 2 h and the levels of PGE2 were determined by ELISA. PGE2 in tears of naïve rabbits (not exposed to concanavalin A nor treated) was also measured. The PGE2 levels (mean±SEM) were: Naïve, 110.4±12.6 ng/ml; PS-treated, 115.4±15.8 ng/ml; Ketorolac-treated, 77.7±8.7 ng/ml. The difference in PS vs. ketorolac was significant, p<0.02; as was the difference in ketorolac vs naïve, p<0.03. Regarding this parameter, PS differs radically form ketorolac, which induces corneal melt.
Levels of PGE2 in the corneas of three groups of rabbits were determined by ELISA. Rabbits were treated with PS 1.6% or ketorolac 0.5% eye drops topically applied to their eyes or were not treated (naïve group). Results in pg/mg protein (mean±SEM). Naïve=787.3±96.3; PS=880.6±110.3; Ketrolorac=247.2±187.4 (p<0.01 vs PS).
Rabbits with DED induced by concanavalin A as above were treated for 6 days with vehicle, or PS 2.3% or ketorolac 0.5% or diclofenac 0.1%. Compared to the vehicle group, on day 6 the PGE2 levels in the cornea were 106% of the vehicle value in the PS group (not a statistically significant difference), 1.3% in the ketorolac group (p<0.0001 vs. vehicle, and 2.3% in the diclofenac group (p<0.0001 vs. vehicle).
It was determined that the levels of PGE2 in rabbit tears in three groups of rabbits, naïve and those with Con A-induced DED that were treated for 1 week either with PS or vehicle.
In an acute experiment, administered once topically to the eyes of four groups of rabbits with Con A-induced DED was one of the following: vehicle, PS, ketorolac or diclofenac; the latter two are NSAIDs used for the treatment of ocular inflammation and pain. It was determined that the levels of PGE2 in the cornea of these rabbits obtained 1 h later as well as in the corneas of naïve rabbits.

VEGF-A = test: Secreted VEGF in culture medium of human ovarian cancer cells (ELISA); assay type: cell-based; conditions: PS 1.0×IC50, 24 h
Protocol: First, the effect of PS on VEGF production was evaluated by cultured human cancer ovarian cells, known to secrete VEGF to recruit vascular endothelial cells for angiogenesis. Therefore, VEGF is one of the most significant and direct targets in an anti-angiogenesis strategy. The experiments discovered that VEGF levels are reduced in ovarian cancer cells by PS. Secreted VEGF was assayed in the culture medium by ELISA.

IL-8 = IL-8 in culture medium of human conjunctival cells (ELISA); assay type: cell-based
Protocol: Culture media were harvested 24 h later and the levels of TGF-β, IL-6 and IL-8 were determined by ELISA. Of note, the levels of IL-1β were below the limit of detection.

NF-κB = NF-κB activation by EMSA in TNF-α-stimulated human conjunctival cells; assay type: cell-based; conditions: PS 5 h then TNF-α 10 ng/ml 1 h, FIG. 6A
From the text: as §1
Human conjunctival cells were treated with various concentrations of PS. Five hours later, TNF-α was added to the culture medium to a final concentration of 10 ng/ml and the status of NF-κB activation was determined by EMSA 1 h later. […] Similarly, after 1 week of treatment, PS suppressed NF-κB activation in the ILG of rabbits with DED compared to those treated with vehicle.

**Q.** How did the “reduction of MMP-1 secreted into the culture medium” value (MMP-1; PS 1×IC50, 2 h) turn out when `CCOP(=O)(OCC)OCCCCOC(=O)CC1=C(C)/C(=C/c2ccc([S+](C)[O-])cc2)c2ccc(F)cc21` (stereo not drawn) [PS, phosphosulindac] was run?
**A.** 48%

**Q.** What about the “levels of MMP-1 secreted into the culture medium” value (MMP-1; PS 1×IC50, 2 h) of the same compound?
**A.** 24.9±0.8

**Q.** What about the “reduction of MMP-1 secreted into the culture medium” value (MMP-1; PS 1.5×IC50, 2 h) of the same compound?
**A.** 55%

**Q.** What about the “levels of MMP-1 secreted into the culture medium” value (MMP-1; PS 1.5×IC50, 2 h) of the same compound?
**A.** 21.6±0.8

**Q.** And the MMP-1 suppression (MMP-1; cultured human conjunctiva cells)?
**A.** 75%-86%

**Q.** What about the “PGE2 levels in tears” value (PGE2; Con A DED rabbits treated for 1 week, FIG. 9A) of the same compound?
**A.** slightly lower than (but not significantly different from) those of naïve rabbits

**Q.** And the “PGE2 levels in the cornea” value (PGE2; Con A DED rabbits, administered once topically, 1 h later, FIG. 9B)?
**A.** no different than those of vehicle-treated and naïve rabbits

**Q.** What about the “PGE2 levels in the cornea, % of the vehicle value” (PGE2; Con A DED rabbits, day 6, PS 2.3%, ketorolac 0.5%, diclofenac 0.1%) of the same compound?
**A.** 106%

**Q.** And the “PGE2 levels in tears” value (PGE2; Con A DED rabbits, three eye drops at 0 and 1 h, tears at 2 h, PS 1.5%, ketorolac 0.5%, mean±SEM)?
**A.** 115.4 ± 15.8 ng/mL

**Q.** And the “PGE2 levels in the corneas” value (PGE2; rabbits, PS 1.6% or ketorolac 0.5% eye drops, mean±SEM)?
**A.** 880.6±110.3 pg/mg protein

**Q.** What about the “VEGF-A, % inhibition” value (VEGF-A; A2780) of the same compound?
**A.** 64%

**Q.** And the “VEGF-A, % inhibition” value (VEGF-A; A2780ADR)?
**A.** 77%

**Q.** And the “VEGF-A, % inhibition” value (VEGF-A; A2780cis)?
**A.** 65%

**Q.** And the “VEGF-A, % inhibition” value (VEGF-A; OVCAR-3)?
**A.** 100%

**Q.** And the “VEGF-A, % inhibition” value (VEGF-A; SKOV-3)?
**A.** 96%

**Q.** And the IL-8 reduction (IL-8; TNF-α-stimulated, PS 1×IC50, media at 24 h)?
**A.** 92%

**Q.** And the IL-8 reduction (IL-8; unstimulated levels, PS 1×IC50)?
**A.** 62%

**Q.** And the “activation of NF-κB (EMSA)” value (NF-κB)?
**A.** significantly suppressed
